Test results reported in patent US20210308089A1, “METHODS OF TREATING AND/OR PREVENTING VIRAL INFECTIONS AND/OR DISEASES CAUSED BY VIRUSES IN A SUBJECT IN NEED THEREOF” (priority 2020, published 2021).

Assays:
[1] = tested on: TG, non-HDL-C, LDL-C, HDL-C, Apo B, hs-CRP; assay: REDUCE-IT: fasting lipid, lipoprotein and inflammatory markers over time; assay type: in vivo, human
Text: The key tertiary objectives for this study were to evaluate the effect of AMR101 4 g daily from baseline and percent change form baseline in fasting triglycerides and LDL-C. […]

[2] = tested on: statin-treated patients with established atherosclerosis or diabetes and elevated triglycerides; assay: REDUCE-IT: total (first and recurrent) ischemic events analysis; assay type: in vivo, human
Text: The following study was a multi-center, placebo-controlled clinical trial the details of which are described above in Example 1, the REDUCE-IT design. […] Randomization was stratified by cardiovascular risk cohort (i.e., secondary or primary prevention), use of ezetimibe, and by geographic region.
The primary outcome for the study was total recurrent events consisting of the composite of cardiovascular death, nonfatal myocardial infarction, nonfatal stroke, coronary revascularization, or hospitalization for unstable angina. Recurrent event analyses were also performed for the key secondary endpoint, a composite of cardiovascular death, nonfatal myocardial infarction, or nonfatal stroke. For each of these composite endpoints, the effects of icosapent ethyl in the secondary and primary prevention strata were examined separately.
Demographic and baseline disease characteristics are presented using frequencies and percentages for categorical variables and medians with interquartile ranges for continuous variables. Between treatment group comparisons were derived using the chi-square test for categorical variables and Wilcoxon rank test for continuous variables. All clinical endpoint events used in the efficacy analyses were adjudicated by an independent Clinical Endpoint Committee (CEC) who were blinded to the treatment assignment. Since the primary efficacy endpoint was the time from randomization to the first occurrence of any component of the composite endpoint, and recurrence of such events within each patient is possible, a pre-specified analysis using a Cox proportional-hazard with the counting-process formulation of Andersen and Gill was performed to model the first and all recurrent cardiovascular events. HRs and corresponding 95% CIs are reported from this model. In addition, as a marginal model and an extension of survival models based on the Cox proportional hazard model, the modified Wei-Lin-Weissfeld (WLW) method for analysis of recurrent events in the presence of deaths was carried out as a supportive analysis. In addition, as pre-specified, a recurrent event analysis using the Andersen-Gill and Wei-Lin-Weissfeld methods was carried out for the individual primary event components other than CV death. Though not pre-specified, additional recurrent event analyses were performed for the key secondary endpoint, which is a composite of CV death, nonfatal MI, or nonfatal stroke, and for the primary endpoint and the key secondary endpoint in the primary and secondary prevention strata to explore further the consistency of clinical benefit of icosapent ethyl. In subgroup analyses of the two cardiovascular risk strata (i.e., primary and secondary prevention), site-level discrepancies in cardiovascular risk group assignment occurring at entry and detected during the study (1.8%) were adjusted to conform with documented medical history data prior to randomization. All efficacy analyses were performed according to the intention-to-treat principle. All tests were based on a 2-sided nominal significance level of 5% with no adjustments for multiple comparisons.

[3] = Year 1 (as headed in Table 18), 4 g/day
[4] = Year 1 (as headed in Table 18), vs placebo

CC/C=C\C/C=C\C/C=C\C/C=C\C/C=C\CCCC(=O)OCC [icosapent ethyl, eicosapentaenoic acid ethyl ester]
LDL cholesterol median change (increase) from baseline ([1]; 4 g/day): 0.05 mmol/L
LDL-C derived median % change from baseline ([1]; Last Visit, 4 g/day, ITT): 3.1%
LDL-C derived median absolute change from baseline ([1]; Last Visit, 4 g/day, ITT): 2.0 mg/dL
Reduction in hs-CRP observed in patients from this trial ([1]; REDUCE-IT): 40%
Apo B median [1, 3]: 80.0 mg/dL
hs-CRP median [1, 3]: 1.8 mg/L
Apo B median between group difference, % change from baseline [1, 4]: −9.7%
Apo B median between group difference, absolute change from baseline [1, 4]: -8.0 mg/dL
hs-CRP median between group difference, absolute change from baseline [1, 4]: -0.9 mg/L
Triglycerides: median reduction from baseline greater than in placebo group (Hodges-Lehmann) ([1]; baseline to one year): 19.7%
Total primary endpoint events: HR vs placebo ([2]; overall trial): 0.68
Total primary endpoint events prevented ([2]; per 100 patients treated for five years): approximately 16
Total key secondary endpoint: HR ([2]; primary prevention stratum, vs placebo): 0.71
Total key secondary endpoint: HR ([2]; secondary prevention stratum, vs placebo): 0.70
First events reduced by ([2]; vs placebo): 25%
Second events reduced by ([2]; vs placebo): 28%
Third or more events reduced by ([2]; vs placebo): 50%
Total events for the primary composite efficacy outcome: relative risk reduction ([2]; vs placebo): 32%
